Data published in patent US20160333043A1, “E-Selectin Antagonists Modified By Macrocycle Formation to the Galactose” (GLYCOMIMETICS, INC., priority 2014, published 2016).
pIC50: −log10 of the molar value. Where two headings read alike, the source gives them in different places.

Tests used:
[1] = rcm bond, Grubbs 2nd generation catalyst, 25.0 °C
[2] = target: T1, E-selectin (Homo sapiens, UniProt P16581); experiment: E-selectin activity competitive binding assay (sLe^a polyacrylamide / streptavidin-HRP conjugate); conditions: immobilized E-selectin/Ig chimera; concentration required to inhibit sLe^a binding by 50%; absorbance 450 nm
T1 construct: fused on or other part: Immunoglobulin (Ig) part fused on as a handle for immobilising and dimerising
T1 sequence (P16581 22-175 limits assumed): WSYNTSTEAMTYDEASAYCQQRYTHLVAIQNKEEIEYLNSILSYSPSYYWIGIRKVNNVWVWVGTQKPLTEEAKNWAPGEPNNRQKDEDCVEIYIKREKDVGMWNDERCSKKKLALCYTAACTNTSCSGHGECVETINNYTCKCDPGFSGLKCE
Excerpt: An inhibition assay may be used to screen for antagonists of E-selectin. For example, an assay may be performed to characterize the capability of a compound described herein to inhibit (i.e., reduce, block, decrease, or prevent in a statistically or biologically significant manner) interaction of E-selectin with sLe^a or sLe^x. The inhibition assay may be a competitive binding assay, which allows the determination of IC50 values. By way of example, E-selectin/Ig chimera may be immobilized onto a matrix (e.g., a multi-well plate, which may be made from a polymer, such as polystyrene; a test tube, and the like); a composition may be added to reduce nonspecific binding (e.g., a composition comprising non-fat dried milk or bovine serum albumin or other blocking buffer routinely used by a person skilled in the art); the immobilized E-selectin may be contacted with the candidate compound in the presence of sLe^a comprising a reporter group under conditions and for a time sufficient to permit sLe^a to bind to the immobilized E-selectin; the immobilized E-selectin may be washed; and the amount of sLe^a bound to immobilized E-selectin may be detected. Variations of such steps can be readily and routinely accomplished by a person of ordinary skill in the art.
The inhibition assay to screen and characterize glycomimetic antagonists of E-selectin is a competitive binding assay, from which IC50 values may be determined. E-selectin/Ig chimera was immobilized in 96 well microtiter plates by incubation at 37° C. for 2 hours. To reduce nonspecific binding, bovine serum albumin was added to each well and incubated at room temperature for 2 hours. The plate was washed and serial dilutions of the test compounds were added to the wells in the presence of conjugates of biotinylated, sLe^a polyacrylamide with streptavidin/horseradish peroxidase and incubated for 2 hours at room temperature.
To determine the amount of sLe^a bound to immobilized E-selectin after washing, the peroxidase substrate, 3,3′,5,5′ tetramethylbenzidine (TMB) was added. After 3 minutes, the enzyme reaction was stopped by the addition of H3PO4, and the absorbance of light at a wavelength of 450 nm was determined.

| SMILES | pIC50 [2] | further results |
| --- | --- | --- |
| CC[C@H]1CCC[C@@H](O[C@@H]2O[C@@H]3COC(c4ccccc4)O[C@@H]3[C@@H]3O[C@@H](C(=O)OCc4ccccc4)CC=CCO[C@@H]23)[C@@H]1O[C@@H]1O[C@@H](C)[C@@H](OCc2ccccc2)[C@@H](OCc2ccccc2)[C@@H]1OCc1ccccc1 (stereo partly shown) |  | ring closure, yield of all isomers ([1]; from C=CCO[C@H]1[C@H](O[C@@H]2CCC[C@H](CC)[C@H]2O[C@@H]2O[C@@H](C)[C@@H](OCc3ccccc3)[C@@H](OCc3ccccc3)[C@@H]2OCc2ccccc2)O[C@@H]2COC(c3ccccc3)O[C@@H]2[C@@H]1O[C@H](CC=C)C(=O)OCc1ccccc1, 16.0 h): 66% |
| CC1O[C@@H](OC2[C@H](C)CCC[C@H]2O[C@@H]2OC(CO)[C@H](O)C3O[C@@H](C(=O)O)CCCCOC32)[C@@H](O)C(O)[C@@H]1O (stereo partly shown) [Compound 18a] | 4.82 |  |
| COC(=O)C1CC=CCCO[C@H]2[C@H](O[C@@H]3CCC[C@H](C)[C@H]3O[C@@H]3O[C@@H](C)[C@@H](OCc4ccccc4)[C@@H](OCc4ccccc4)[C@@H]3OCc3ccccc3)O[C@H](COCc3ccccc3)[C@H](O)[C@@H]2O1 (stereo partly shown) |  | ring closure, yield of all isomers ([1]; from C=CCCO[C@H]1[C@H](O[C@@H]2CCC[C@H](C)[C@H]2O[C@@H]2O[C@@H](C)[C@@H](OCc3ccccc3)[C@@H](OCc3ccccc3)[C@@H]2OCc2ccccc2)O[C@H](COCc2ccccc2)[C@H](O)[C@@H]1OC(CC=C)C(=O)OC, DCM, 2.0 h): 82.5% |
| CC[C@@H]1CCC[C@@H](O[C@@H]2OC(CO)[C@H](O)C3O[C@@H](C(=O)O)CCCCOC32)C1O[C@@H]1OC(C)[C@@H](O)C(O)[C@@H]1O (stereo partly shown) [Compound 39] | 5.14 |  |
| CC[C@@H]1CCC[C@@H](O[C@@H]2OC(CO)[C@H](O)C3O[C@@H](C(=O)O)CCCOC32)C1O[C@@H]1OC(C)[C@@H](O)C(O)[C@@H]1O (stereo partly shown) [Compound 47] | 5.42 |  |
| COC(=O)C1CC=CCO[C@H]2[C@H](O[C@@H]3CCC[C@H](C)[C@H]3O[C@@H]3O[C@@H](C)[C@@H](OCc4ccccc4)[C@@H](OCc4ccccc4)[C@@H]3OCc3ccccc3)O[C@H](COCc3ccccc3)[C@H](O)[C@@H]2O1 (stereo partly shown) |  | ring closure, yield of all isomers ([1]; from C=CCO[C@H]1[C@H](O[C@@H]2CCC[C@H](C)[C@H]2O[C@@H]2O[C@@H](C)[C@@H](OCc3ccccc3)[C@@H](OCc3ccccc3)[C@@H]2OCc2ccccc2)O[C@H](COCc2ccccc2)[C@H](O)[C@@H]1OC(CC=C)C(=O)OC, DCM, 5.25 mM, 2.0 h): 86% |
| CC1O[C@@H](OC2[C@H](C)CCC[C@H]2O[C@@H]2OC(CO)[C@H](O)C3O[C@@H](C(=O)O)CCCOC32)[C@@H](O)C(O)[C@@H]1O (stereo partly shown) [Compound 25] | 4.80 |  |
